Values joined by “and” are separate entries in the source; they are usually repeats but may differ in a detail not shown here. Equal entries are not always repeated.
System: mice, spared nerve injury (SNI) model
Assay: SNI model, marble-burying test
Format: in vivo, mouse
Experimental: solution (0.05 mg/kg) injected s.c. 30 min before surgery (10 μL/g). For surgery, mice were anaesthetised with ketamine (100 mg/kg, i.p.) and xylazine (10 mg/kg, i.p.) (volume 10 µL/g) with 100 μL of 1% xylocaine solution infiltrated at the site of the incision. The distal trifurcation of the sciatic nerve was identified, and the tibial and common peroneal branches were ligated with polypropylene nonabsorbable 6-0 sutures (Ethicon) and 1 mm was cut out, leaving the sural branch intact. The wound was closed with sutures, and the animals were allowed to recover and returned to their cages. Two subcutaneous injections of buprenorphine (0.05 mg/kg) were performed with an 8 to 12 hours delay decreasing pain due to the surgery […]
Wounds were closed with surgical glue or medical clips and animals were monitored daily for signs of stress or discomfort, but in all cases recovered uneventfully. […]
For the first experiment with sustained administration of mPD5 (Figure 7C), the mice underwent a baseline von Frey reading as described in the “Mechanically-evoked pain (von Frey).”-section and SNI surgery as described in “Induction of neuropathic pain (SNI model).”-section. […] At 4,5 hours after the 10 μmol/kg mPD5 injection paw withdrawal threshold was measured again followed by a s.c. injection of 2 μmol/kg mPD5 in all animals. […]

CCCCCCCCCCCCCC(=O)N(CCOCCOCCC(=O)N[C@@H](Cc1c[nH]cn1)C(=O)N[C@@H](Cc1c[nH]c2ccccc12)C(=O)N[C@@H](CC(C)C)C(=O)N[C@@H](CCCCN)C(=O)N[C@H](C(=O)O)C(C)C)CCOCCOCCC(=O)N[C@@H](Cc1c[nH]cn1)C(=O)N[C@@H](Cc1c[nH]c2ccccc12)C(=O)N[C@@H](CC(C)C)C(=O)N[C@@H](CCCCN)C(=O)N[C@H](C(=O)O)C(C)C [mPD5, myristoyl-NPEG4-(HWLKV)2]
marbles buried, individual mice (1 hour after s.c. 10 μmol/kg): 6 and 7 and 9 and 8 and 3 and 1 and 5
effect on SNI-induced decrease in marble burying (female mice, s.c. 10 μmol/kg, to the level of the naive mice): reverted significantly

— PMC11530130, “Peripherally restricted PICK1 inhibitor mPD5 ameliorates pain behaviors in murine inflammatory and neuropathic pain models” (JCI Insight, 2024)
